Data from patent US8445207B2, “Genes based on thalidomide, valproic acid and methotrexate treatment for screening of drug inducing teratogenicity and screening method using thereof” (priority 2009, dated 2013).

Test system: JEG-3 (human placental choriocarcinoma cell line)
Assay: Real-time RT-PCR quantification of gene expression in drug-treated JEG-3
Assay type: cell-based
Details: for Real time PCR (Relative ratio), KIAA0310: GenBank AB002308; for Real time PCR (Relative ratio), ATP10B: GenBank AB018258; for Real time PCR (Relative ratio), TTF2: GenBank AB209845; for Real time PCR (Relative ratio), TncRNA: GenBank AF001893; for Real time PCR (Relative ratio), C4orf19: GenBank AK001879; for Real time PCR (Relative ratio), CYP19A1: GenBank AK023571; for Real time PCR (Relative ratio), SLC40A1: GenBank AK023574; for Real time PCR (Relative ratio), ABTB2: GenBank AK095632; for Real time PCR (Relative ratio), TUBB3: GenBank AK122757; for Real time PCR (Relative ratio), MGC27016: GenBank AK125877; for Real time PCR (Relative ratio), GLCCI1: GenBank AK126731; for Real time PCR (Relative ratio), TFCP2L4: GenBank BC036890; for Real time PCR (Relative ratio), RGS2: GenBank BC042755; for Real time PCR (Relative ratio), SIAT7A: GenBank BC063830; for Real time PCR (Relative ratio), B7-H4: GenBank BX648021; for Real time PCR (Relative ratio), COBLL1: GenBank BX649112; for Real time PCR (Relative ratio), CGA: GenBank NM_000735; for Real time PCR (Relative ratio), PARP1: GenBank NM_001618; for Real time PCR (Relative ratio), SERPINB9: GenBank NM_004155; for Real time PCR (Relative ratio), ST8SIA4: GenBank NM_005668; for Real time PCR (Relative ratio), ABL1: GenBank NM_007313; for Real time PCR (Relative ratio), GRLF1: GenBank NM_024342; for Real time PCR (Relative ratio), LGP1: GenBank NM_032484; for Real time PCR (Relative ratio), NCOA3: GenBank NM_181659; for Real time PCR (Relative ratio), SR140: GenBank XM_031553; for Real time PCR (Relative ratio), SLC7A8: GenBank Y18483
Description: My IQ Real-Time PCR (Bio-Rad, USA) was performed to quantify the expressions of those genes.
Particularly, cDNA was synthesized using oligo dT primer and Superscript kit (Omniscipt™ kit, Qiagen, Co., USA) by reverse transcription. 0.2 μl of the cDNA, 3.8 μl of water, 0.5 μg of a sense primer, 0.5 μg of an antisense primer, and […] of SYBR Green I supermix (Bio-Rad, USA) were mixed, which was placed in a PCR tube, followed by real-time RT-PCR in My IQ real-time PCR machine as follows: Step 1: 95°, 3 minutes; Step 2 (45 cycles): Step 2-1: 95°, 10 seconds; Step 2-2: 55-65° 45 seconds; Step 3: 95°, 1 minute; Step 4: 55°, 1 minute; Step 5 (80 cycles): 55°, 10 seconds. SYBR green I (Bio-Rad, USA) staining was performed to quantify the PCR product. SYBR I staining is the staining method using double stranded DNA binding. So, the more double stranded DNA is generated during PCR, the stronger the fluorescence intensity becomes. First, target gene and endogenous control (GAPDH) primers were added to SYBR green master mix, followed by PCR. Then, primer optimization was performed to determine a proper concentration. Synthesized cDNA and each primer were mixed (Table 4), to which SYBR master mix was added, followed by PCR.

Compound	Real time PCR (Relative ratio), KIAA0310	Real time PCR (Relative ratio), ATP10B	Real time PCR (Relative ratio), TTF2	Real time PCR (Relative ratio), TncRNA	Real time PCR (Relative ratio), C4orf19	Real time PCR (Relative ratio), CYP19A1	Real time PCR (Relative ratio), SLC40A1	Real time PCR (Relative ratio), ABTB2	Real time PCR (Relative ratio), TUBB3	Real time PCR (Relative ratio), MGC27016	Real time PCR (Relative ratio), GLCCI1	Real time PCR (Relative ratio), TFCP2L4	Real time PCR (Relative ratio), RGS2	Real time PCR (Relative ratio), SIAT7A	Real time PCR (Relative ratio), B7-H4	Real time PCR (Relative ratio), COBLL1	Real time PCR (Relative ratio), CGA	Real time PCR (Relative ratio), PARP1	Real time PCR (Relative ratio), SERPINB9	Real time PCR (Relative ratio), ST8SIA4	also measured
CN(Cc1cnc2nc(N)nc(N)c2n1)c1ccc(C(=O)N[C@@H](CCC(=O)O)C(=O)O)cc1 [MTX, methotrexate]	3.9217	2.6467	1.9659	2.2297	36.2463	1.7007	6.0098	0.1356	4.7892	2.3343	2.5941	0.7146	5.6716	8.3865	0.4198	1.4978	0.0829	0.2381	1.5208	0.955	Real time PCR (Relative ratio), ABL1: 0.5159; Real time PCR (Relative ratio), GRLF1: 0.7048; Real time PCR (Relative ratio), LGP1: 0.6468; Real time PCR (Relative ratio), NCOA3: 2.4457; Real time PCR (Relative ratio), SR140: 0.1357; Real time PCR (Relative ratio), SLC7A8: 2.8779
CCCC(CCC)C(=O)O [VPA, valproic acid]	5.7397	2.7083	1.6637	1.8204	2.9592	2.15	1.9425	4.0469	1.9015	2.3155	1.6023	2.292	2.8779	4.5249	0.0755	12.2271	2.6497	0.7443	7.1977	3.7161	Real time PCR (Relative ratio), ABL1: 0.8681; Real time PCR (Relative ratio), GRLF1: 0.8281; Real time PCR (Relative ratio), LGP1: 0.4982; Real time PCR (Relative ratio), NCOA3: 2.1913; Real time PCR (Relative ratio), SR140: 0.3565; Real time PCR (Relative ratio), SLC7A8: 6.3157
